Peptide text beside a SMILES is read from it. * marks the point of attachment. Cbz = O=C(OCc1ccccc1)*
Assay: inhibition of 26S proteasome fluorogenic peptide cleavage, counter-screen for 26S proteasome disassembly project, biochemical, fluorogenic peptides, secondary (AID 2132)
Conditions: yeast 26S proteasome, peptide cleavage rate with compound, at 100 µM, stronger effect = lower value

Compound	cleavage rate (fluorescence units/min) (with Ac-RLR-amc)	cleavage rate (fluorescence units/min) (with Ac-nLPnLD-amc)	cleavage rate (fluorescence units/min) (with Suc-LLVY-amc)
CC(=O)N1C(=O)C(=C2C=C(C)OC(C)=C2)c2ccccc21	0.32	0.2	0.52
CC(C)C[C@@H](C=O)NC(=O)[C@H](CC(C)C)NC(=O)[C@H](CC(C)C)NC(=O)OCc1ccccc1 (Cbz-Leu-Leu-Leu-aldehyde)	0.41	0.11	0

Source: PubChem BioAssay AID2132 (NMMLSC, 2009)
